The record followed here is patent publication US11993593B2, “Griseofulvin compound and pharmaceutical use thereof” (Daiichi Sankyo Company, Limited, priority 2017, dated 2024).

The experiment relates to Male ddY mice. Put plainly: Forced swim test. The class given is in vivo. Particulars: Mus musculus, oral, 4 hours after administration, immobility time measured for six minutes, ratio to control group (0.5% methylcellulose). The protocol:
(Test Example) Forced Swim Test
Male ddY mice (4 weeks old at the time of evaluation) were used for the test in groups of 10 mice. The mice were placed in a water bath (inner diameter 14.5 cm, height 20 cm, water temperature about 24° C.) with water filled to a height of about 15 cm, and a swimming trial was carried out for 15 minutes (training trial). The next day, mice were orally administered with a suspension of each compound (10 mL/kg, solvent: 0.5% methylcellulose aqueous solution) was orally administered to the mice, and four hours later, they were placed in the water bath. Immobility time (sec) was measured for six minutes immediately after that, and the ratio of the average immobility time of each compound administration group with respect to the average immobility time of a control group (10 mL/kg administration of 0.5% methylcellulose aqueous solution without a compound) was calculated.

Consider `COCCOc1cc(OC)c2c(c1Cl)O[C@]1(C2=O)C(OC)=CC(=O)C[C@H]1C` [Example 2, (2S,5′R)-7-chloro-3′,4-dimethoxy-6-(2-methoxyethoxy)-5′-methyl-spiro [benzofuran-2,4′-cyclohex-2-ene]-1′,3-dione], for which the response vs control in vivo at 10 mg/kg worked out at 71%.

On to `COC1=CC(=O)C[C@@H](C)[C@]12Oc1c(Cl)c(-c3ccn(C)n3)cc(OC)c1C2=O` [Example 3, (2S,5′R)-7-chloro-3′,4-dimethoxy-5′-methyl-6-(1-methylpyrazol-3-yl) spiro [benzofuran-2,4′-cyclohex-2-ene]-1′,3-dione], for which the response vs control in vivo at 10 mg/kg is 84%.

As for `CCn1ccc(-c2cc(OC)c3c(c2Cl)O[C@]2(C3=O)C(OC)=CC(=O)C[C@H]2C)n1` [Example 4, (2S,5′R)-7-chloro-6-(1-ethylpyrazol-3-yl)-3′,4-dimethoxy-5′-methyl-spiro [benzofuran-2,4′-cyclohex-2-ene]-1′,3-dione], the response vs control in vivo at 10 mg/kg was 61%.

As to `COC1=CC(=O)C[C@@H](C)[C@]12Oc1c(Cl)c(-c3nnc(C)o3)cc(OC)c1C2=O` [Example 5, (2S,5′R)-7-chloro-3′,4-dimethoxy-5′-methyl-6-(5-methyl-1,3,4-oxadiazol-2-yl) spiro [benzofuran-2,4′-cyclohex-2-ene]-1′,3-dione], the response vs control in vivo at 10 mg/kg turned out to be 62%.

In the case of `COC1=CC(=O)C[C@@H](C)[C@]12Oc1c(Cl)c(-c3nc(C)no3)cc(OC)c1C2=O` [Example 6, (2S,5′R)-7-chloro-3′,4-dimethoxy-5′-methyl-6-(3-methyl-1,2,4-oxadiazol-5-yl) spiro [benzofuran-2,4′-cyclohex-2-ene]-1′,3-dione], the response vs control in vivo at 10 mg/kg stood at 67%.

On to `CCc1nnc(-c2cc(OC)c3c(c2Cl)O[C@]2(C3=O)C(OC)=CC(=O)C[C@H]2C)o1` [Example 17, (2S,5′R)-7-chloro-6-(5-ethyl-1,3,4-oxadiazol-2-yl)-3′,4-dimethoxy-5′-methyl-spiro [benzofuran-2,4′-cyclohex-2-ene]-1′,3-dione], for which the response vs control in vivo at 10 mg/kg is 72%.

For the compound `COC1=CC(=O)C[C@@H](C)[C@]12Oc1c(Cl)c(-c3nnc(C4CCOCC4)o3)cc(OC)c1C2=O` [Example 18, (2S,5′R)-7-chloro-3′,4-dimethoxy-5′-methyl-6-(5-tetrahydropyran-4-yl-1,3,4-oxadiazol-2-yl) spiro [benzofuran-2,4′-cyclohex-2-ene]-1′,3-dione], the response vs control in vivo at 10 mg/kg was 85%.

As to `COC1=CC(=O)C[C@@H](C)[C@]12Oc1c(Cl)c(-c3nnc([C@H](C)OC)o3)cc(OC)c1C2=O` [Example 21, (2S,5′R)-7-chloro-3′,4-dimethoxy-6-[5-[(1S)-1-methoxyethyl]-1,3,4-oxadiazol-2-yl]-5′-methyl-spiro [benzofuran-2,4′-cyclohex-2-ene]-1′,3-dione], the response vs control in vivo at 10 mg/kg stood at 87%.

Consider `CCOc1cc(-c2nnc(C)o2)c(Cl)c2c1C(=O)[C@@]1(O2)C(OC)=CC(=O)C[C@H]1C` [Example 22, (2S,5′R)-7-chloro-4-ethoxy-3′-methoxy-5′-methyl-6-(5-methyl-1,3,4-oxadiazol-2-yl) spiro [benzofuran-2,4′-cyclohex-2-ene]-1′,3-dione], for which the response vs control in vivo at 10 mg/kg came to 88%.

In the case of `COC1=CC(=O)C[C@@H](C)[C@]12Oc1c(Cl)c(-c3nc(C(C)OC)no3)cc(OC)c1C2=O` (stereo partly drawn) [Example 24, (2S,5′R)-7-chloro-3′,4-dimethoxy-6-[3-(1-methoxyethyl)-1,2,4-oxadiazol-5-yl]-5′-methyl-spiro [benzofuran-2,4′-cyclohex-2-ene]-1′,3-dione], the response vs control in vivo at 10 mg/kg came to 65%.

In the case of `COC1=CC(=O)C[C@@H](C)[C@]12Oc1c(Cl)c(-c3nc(C(C)(C)O)no3)cc(OC)c1C2=O` [Example 25, (2S,5′R)-7-chloro-6-[3-(1-hydroxy-1-methyl-ethyl)-1,2,4-oxadiazol-5-yl]-3′,4-dimethoxy-5′-methyl-spiro [benzofuran-2,4′-cyclohex-2-ene]-1′,3-dione], the response vs control in vivo at 10 mg/kg is 58%.

`COC1=CC(=O)C[C@@H](C)[C@]12Oc1c(Cl)c(-c3ccn[nH]3)cc(OC)c1C2=O` [Example 26, (2S,5′R)-7-chloro-3′,4-dimethoxy-5′-methyl-6-(1H-pyrazol-5-yl) spiro [benzofuran-2,4′-cyclohex-2-ene]-1′,3-dione]: the response vs control in vivo at 10 mg/kg came to 72%.

On to `COC1=CC(=O)C[C@@H](C)[C@]12Oc1c(Cl)c(C3=NOC4(CCOCC4)C3)cc(OC)c1C2=O` [Example 28, (2S,5′R)-7-chloro-6-(1,8-dioxa-2-azaspiro [4.5]dec-2-en-3-yl)-3′,4-dimethoxy-5′-methyl-spiro [benzofuran-2,4′-cyclohex-2-ene]-1′,3-dione], for which the response vs control in vivo at 10 mg/kg stood at 80%.

`COC1=CC(=O)C[C@@H](C)[C@]12Oc1c(Cl)c(-c3cnc(OC)nc3)cc(OC)c1C2=O` [Example 30, (2S,5′R)-7-chloro-3′,4-dimethoxy-6-(2-methoxypyrimidin-5-yl)-5′-methyl-spiro [benzofuran-2,4′-cyclohex-2-ene]-1′,3-dione]: the response vs control in vivo at 10 mg/kg stood at 70%.

Turning to `COC1=CC(=O)C[C@@H](C)[C@]12Oc1c(Cl)c(-c3ccc(OC)nc3)cc(OC)c1C2=O` [Example 31, (2S,5′R)-7-chloro-3′,4-dimethoxy-6-(6-methoxy-3-pyridyl)-5′-methyl-spiro [benzofuran-2,4′-cyclohex-2-ene]-1′,3-dione], the response vs control in vivo at 10 mg/kg was 68%.

For the compound `COC1=CC(=O)C[C@@H](C)[C@]12Oc1c(Cl)c(OC)cc(OC)c1C2=O` [Griseofulvin, (2S,5′R)-7-chloro-3′,4,6-trimethoxy-5′-methyl-spiro [benzofuran-2,4′-cyclohex-2-ene]-1′,3-dione], the response vs control in vivo at 100 mg/kg (dose 100 mg/kg) was determined as 72%.
